The structures appear in SMILES notation.

The target in test [1] is T1, Endothelin-A Receptor (Sus scrofa, UniProt Q29010).
T1 construct: A pig ventricular muscle membrane fraction for an endothelin-A receptor assay; from tissue; host or cells: pig ventricular muscle membrane fraction
T1 sequence (Q29010 21-427): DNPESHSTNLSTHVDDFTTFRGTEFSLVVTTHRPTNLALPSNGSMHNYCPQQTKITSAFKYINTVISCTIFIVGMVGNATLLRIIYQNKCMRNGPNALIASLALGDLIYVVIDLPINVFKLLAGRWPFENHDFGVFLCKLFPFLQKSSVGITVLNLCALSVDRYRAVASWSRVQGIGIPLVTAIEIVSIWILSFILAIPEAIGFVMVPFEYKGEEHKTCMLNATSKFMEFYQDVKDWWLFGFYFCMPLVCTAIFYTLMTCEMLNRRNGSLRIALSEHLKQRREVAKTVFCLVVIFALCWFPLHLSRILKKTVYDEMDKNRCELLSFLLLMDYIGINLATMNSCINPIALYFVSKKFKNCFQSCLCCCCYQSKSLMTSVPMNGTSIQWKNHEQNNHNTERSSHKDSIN
Description: Endothelin Receptor Assay, [125I]endothelin-1 binding to pig ventricular muscle membrane fraction. To be noted: 25°C for 60 minutes, concentration wherein PMB was 50%, read-out: IC50 Endothelin-A Receptor (pigs). The procedure: (§1) A pig ventricular muscle membrane fraction for an endothelin-A receptor assay and a bovine cerebral membrane fraction for an endothelin-B receptor assay were diluted with an assay buffer [comprising 20 mM of Tris-HCl, 2 mM of EGTA (ethylene glycol bis(2-aminoethyl ether)tetraacetic acid), 5 mM of magnesium acetate, 0.1% of BSA (bovine serum albumin), 0.03% of NaN3, 0.5 mM of PMSF (phenylmethylsulfonyl fluoride), 20 micrograms/ml of leupeptin, 4 micrograms/ml of E-64 (manufactured by the Peptide Institute, Japan) and 1 microgram/ml of pepstatin; pH 7.2] to 12 µg/ml and 180 µg/ml, respectively.
(§2) To each 100 microliter of them was added 5 nM [^125I] endothelin-1 (2 microliters). A solution (3 microliters) of the sample was added and the mixture was incubated at 25°C for 60 minutes. In order to measure the maximum binding (B0) and the nonspecific bonding (NSB), a lot to which dimethyl sulfoxide (3 microliters) or a solution (3 microliters) of 10^-5M of endothelin in dimethyl sulfoxide was added was incubated as well. […] The radioactivity of the filter was counted by a γ -counter and a calculation was conducted in accordance with the following formula (1) whereby a percent maximum binding (hereinafter, referred to as PMB) was determined. […]

Test [2] concerns the target T2, Endothelin-B Receptor (Bos taurus, UniProt P28088).
T2 construct: a bovine cerebral membrane fraction for an endothelin-B receptor assay; from tissue; host or cells: bovine cerebral membrane fraction
T2 sequence (P28088 27-441): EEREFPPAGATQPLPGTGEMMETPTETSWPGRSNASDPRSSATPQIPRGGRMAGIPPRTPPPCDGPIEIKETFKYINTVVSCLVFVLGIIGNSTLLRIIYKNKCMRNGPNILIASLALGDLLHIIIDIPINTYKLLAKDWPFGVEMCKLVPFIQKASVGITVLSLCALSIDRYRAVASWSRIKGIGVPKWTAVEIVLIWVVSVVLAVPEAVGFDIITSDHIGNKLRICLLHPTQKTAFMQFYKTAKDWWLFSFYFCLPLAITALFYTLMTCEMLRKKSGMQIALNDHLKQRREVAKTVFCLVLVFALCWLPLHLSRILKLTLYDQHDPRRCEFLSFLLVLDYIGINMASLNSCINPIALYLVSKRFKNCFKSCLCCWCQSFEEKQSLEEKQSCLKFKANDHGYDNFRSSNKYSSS
Description: Endothelin Receptor Assay, [125I]endothelin-1 binding to bovine cerebral membrane fraction. To be noted: 25°C for 60 minutes, concentration wherein PMB was 50%. The protocol:
as §1, §2

The target of test [3] is T3, Endothelin-A Receptor (Homo sapiens, UniProt P25101).
T3 construct: expressed in transfected cells; host or cells: Sf9 insect cells (membrane fraction)
T3 sequence (P25101 21-427): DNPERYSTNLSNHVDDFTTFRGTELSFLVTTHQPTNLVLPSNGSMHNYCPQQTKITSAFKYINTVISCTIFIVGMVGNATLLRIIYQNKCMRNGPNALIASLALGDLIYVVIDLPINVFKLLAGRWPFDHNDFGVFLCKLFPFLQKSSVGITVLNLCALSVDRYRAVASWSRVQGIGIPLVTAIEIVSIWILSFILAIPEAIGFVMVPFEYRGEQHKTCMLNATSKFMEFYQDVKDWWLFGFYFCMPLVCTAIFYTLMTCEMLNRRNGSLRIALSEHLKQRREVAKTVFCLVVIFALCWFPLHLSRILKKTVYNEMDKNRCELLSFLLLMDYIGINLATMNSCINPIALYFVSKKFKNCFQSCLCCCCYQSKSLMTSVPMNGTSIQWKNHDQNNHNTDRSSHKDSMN
The test can be described thus: Endothelin Assay Test, [125I]endothelin-1 binding to insect cell (Sf9) membrane fraction expressing human ETA receptor. To be noted: human ETA receptor expressed, 25°C for 60 minutes, PMB = 50%, read-out: IC 50 Endothelin-A Receptor (human). The protocol:
(§3) Endothelin (ET) receptors were prepared as follows. An insect cell (Sf9) membrane fraction wherein human endothelin-A (ETA) was expressed and that wherein endothelin-B (ETB) was expressed were diluted with an assay buffer [comprising 20 mM of Tris-HCl, 2 mM of EGTA (ethylene glycol bis(2-aminoethyl ether)tetraacetic acid), 5 mM of magnesium acetate, 0.1% of BSA (bovine serum albumin), 0.03% of NaN3, 0.5 mM of PMSF (phenylmethylsulfonyl fluoride), 20 micrograms/ml of leupeptin, 4 micrograms/ml of E-64 (manufactured by the Peptide Institute, Japan) and 1 microgram/ml of pepstatin; pH 7.2] to make 1.4 micrograms/ml and 0.7 microgram/ml for the insect cell (Sf 9) membrane fraction wherein a human ETA receptor was expressed and for that wherein a human ETB receptor was expressed, respectively. Each 100 microliters of them were taken out and 2 microliters of 5nM [^125I]endothelin-1 was added thereto. A dimethyl sulfoxide solution (3 microliters) of the sample was added thereto and the mixture was incubated at 25°C for 60 minutes. Further, in order to measure the maximum binding (B0) and the nonspecific binding (NSB), a lot to which […] or […] of 10^-5M of endothelin-1 in dimethyl sulfoxide was added was incubated as well. An assay buffer suspended with 0.05% CHAPS (3-[(3-cholamidopropyl)di-methylammonio]-1-propanesulfonate, 1.5 ml) was added and the mixture was filtered through a GF/F glass fiber filter (trade name of Whatman, England) followed by washing with 1.5 ml of the same buffer.
(§4) The radioactivity of the filter was counted by a γ -counter and determined PMB by the same way described in Test Example 1. The value wherein PMB = 50% was calculated and expressed as an IC50.

Test [4] concerns the target T4, Endothelin-B Receptor (Homo sapiens, UniProt P24530).
T4 construct: expressed in transfected cells; host or cells: Sf9 insect cells (membrane fraction)
T4 sequence (P24530 27-442): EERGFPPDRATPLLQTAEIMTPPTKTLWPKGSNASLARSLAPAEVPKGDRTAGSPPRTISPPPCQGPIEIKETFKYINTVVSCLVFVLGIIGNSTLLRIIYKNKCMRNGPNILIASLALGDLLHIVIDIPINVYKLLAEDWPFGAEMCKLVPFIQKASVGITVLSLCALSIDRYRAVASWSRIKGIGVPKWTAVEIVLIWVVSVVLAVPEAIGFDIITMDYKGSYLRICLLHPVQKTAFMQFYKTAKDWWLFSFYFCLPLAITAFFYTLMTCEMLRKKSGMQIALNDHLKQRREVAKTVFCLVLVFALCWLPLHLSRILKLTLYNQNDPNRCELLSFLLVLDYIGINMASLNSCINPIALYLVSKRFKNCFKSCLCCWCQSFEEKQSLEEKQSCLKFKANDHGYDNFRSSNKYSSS
The test can be described thus: Endothelin Assay Test, [125I]endothelin-1 binding to insect cell (Sf9) membrane fraction expressing human ETB receptor. To be noted: human ETB receptor expressed, 25°C for 60 minutes, PMB = 50%, read-out: IC 50 Endothelin-B Receptor (human). The procedure:
as §3, §4

As to `COc1cccc(Cn2c(=O)n(CC(=O)O)c(=O)c3cc(-c4ccccc4)sc32)c1` [Compound 99], the IC50 at Endothelin-A Receptor [1] was 12 µM; on Endothelin-B Receptor [2], 39 µM.

As to `COc1ccccc1Cn1c(=O)n(CC(=O)O)c(=O)c2c(C)c(-c3ccccc3)sc21` [Compound 102], the results for the IC50 at Endothelin-A Receptor [1] and on Endothelin-B Receptor [2] were 1.3 µM and 7.5 µM, respectively.

With `COc1ccc(-c2sc3c(c2C)c(=O)n(CC(=O)O)c(=O)n3Cc2ccccc2OC)cc1` [Compound 105], the IC50 turned out to be 1.9 µM at Endothelin-A Receptor [3] and 12 µM on Endothelin-B Receptor [4].

Turning to `COc1ccc(-c2sc3c(c2C)c(=O)n(CC(=O)O)c(=O)n3Cc2ccccc2C)cc1` [Compound 111], the IC50 at Endothelin-A Receptor [3] is 1.8 µM; on Endothelin-B Receptor [4], 14 µM.

With `COc1ccc(-c2sc3c(c2C)c(=O)n(CC(=O)O)c(=O)n3Cc2ccccc2SC)cc1` [Compound 115, 2,4(1H,3H)-dioxo-5-methyl-6-(4-methoxyphenyl)-1-(2-methylthiobenzyl)thieno[2,3-d]pyrimidine-3-acetic acid], the IC50 on Endothelin-A Receptor [3] was 0.71 µM; at Endothelin-B Receptor [4], 6.8 µM.

With `COc1ccc(-c2sc3c(c2C)c(=O)n(CC(=O)O)c(=O)n3Cc2cc(OC)ccc2OC)cc1` [Compound 125], the IC50 at Endothelin-A Receptor [3] is 2.9 µM; on Endothelin-B Receptor [4] it was 26 µM.

Turning to `COc1ccccc1Cn1c(=O)n(CC(=O)O)c(=O)c2c(C)c(-c3ccc(OCCO)cc3)sc21` [Compound 130], the results for the IC50 at Endothelin-A Receptor [3] and on Endothelin-B Receptor [4] were 1.2 µM and 12 µM, respectively.

Consider `COCOc1ccc(-c2sc3c(c2C)c(=O)n(CC(=O)O)c(=O)n3Cc2ccccc2OC)cc1` [Compound 131, 2,4(1H,3H)-dioxo-5-methyl-6-(4-methoxymethoxyphenyl)-1-(2-methoxybenzyl)thieno[2,3-d]pyrimidine-3-acetic acid], for which the IC50 on Endothelin-A Receptor [3] came to 0.3 µM; on Endothelin-B Receptor [4] it was 2.4 µM.

`COc1ccccc1Cn1c(=O)n(CC(=O)O)c(=O)c2c(C)c(-c3ccc(OCSC)cc3)sc21` [Compound 140, 2,4(1H,3H)-dioxo-5-methyl-6-(4-methylthiomethoxyphenyl)-1-(2-methoxybenzyl)thieno[2,3-d]pyrimidine-3-acetic acid]: the values for the IC50 on Endothelin-A Receptor [3] and on Endothelin-B Receptor [4] were 0.24 µM and 15 µM, respectively.

As for `COc1ccccc1Cn1c(=O)n(CC(=O)O)c(=O)c2c(C)c(-c3ccc(OCC(N)=O)cc3)sc21` [Compound 143], the IC50 on Endothelin-A Receptor [3] was 2.5 µM; at Endothelin-B Receptor [4] it was 33 µM.

Turning to `COCOc1ccc(-c2sc3c(c2C)c(=O)n(CC(=O)O)c(=O)n3Cc2ccccc2SC)cc1` [Compound 144, 2,4(1H,3H)-dioxo-5-methyl-6-(4-methoxymethoxyphenyl)-1-(2-methylthiobenzyl)thieno[2,3-d]pyrimidine-3-acetic acid], the IC50 on Endothelin-A Receptor [3] is 0.085 µM; at Endothelin-B Receptor [4], 0.92 µM.

On to `CSCOc1ccc(-c2sc3c(c2C)c(=O)n(CC(=O)O)c(=O)n3Cc2ccccc2SC)cc1` [Compound 145, 2,4(1H,3H)-dioxo-5-methyl-6-(4-methylthiomethoxyphenyl)-1-(2-methylthiobenzyl)thieno[2,3-d]pyrimidine-3-acetic acid], for which the IC50 at Endothelin-A Receptor [3] came to 0.066 µM; at Endothelin-B Receptor [4], 0.66 µM.

On to `CCCOc1ccc(-c2sc3c(c2C)c(=O)n(CC(=O)O)c(=O)n3Cc2ccccc2SC)cc1` [Compound 146, 2,4(1H,3H)-dioxo-5-methyl-1-(2-methylthiobenzyl)-6-(4-propoxyphenyl)thieno[2,3-d]pyrimidine-3-acetic acid], for which the IC50 at Endothelin-A Receptor [3] came to 0.25 µM; on Endothelin-B Receptor [4], 2.6 µM.

On to `CSc1ccccc1Cn1c(=O)n(CC(=O)O)c(=O)c2c(C)c(-c3ccc(OCC(C)=O)cc3)sc21` [Compound 148, 2,4(1H,3H)-dioxo-5-methyl-1-(2-methylthiobenzyl)-6-[4-(2-oxopropoxy)phenyl]thieno[2,3-d]pyrimidine-3-acetic acid], for which the IC50 at Endothelin-A Receptor [3] amounted to 0.4 µM; at Endothelin-B Receptor [4], 7.1 µM.

Regarding `CSc1ccccc1Cn1c(=O)n(CC(=O)O)c(=O)c2c(C)c(-c3ccc4c(c3)OCO4)sc21` [Compound 156], the IC50 stood at 2.6 µM at Endothelin-A Receptor [3] and 16 µM on Endothelin-B Receptor [4].

Take `CSc1ccccc1Cn1c(=O)n(CC(=O)O)c(=O)c2c(C)c(-c3ccc(-n4cccc4)cc3)sc21` [Compound 173, 2,4(1H,3H)-dioxo-1-(2-methylthiobenzyl)-6-[4-(1-pyrrolyl)phenyl]-5-methylthieno[2,3-d]pyrimidine-3-acetic acid]: the IC50 at Endothelin-A Receptor [3] turned out to be 2.1 µM; on Endothelin-B Receptor [4] it was 2.5 µM.
